Test results published in patent US20100130514A1, “FUSED HETEROCYCLIC DERIVATIVE, PHARMACEUTICAL COMPOSITION COMPRISING THE DERIVATIVE, AND USE OF THE COMPOSITION FOR MEDICAL PURPOSES” (Kissei Pharmaceutical Co., Ltd., priority 2007, published 2010).

How the values were obtained:
human GnRHR1 = target: T1, human GnRHR1 (Homo sapiens, UniProt P30968); assay: Inhibitory effect for the change of calcium levels in GnRH-stimulated cells (hGnRHR1#1 HEK293 cells); type: cell-based; conditions: HEK293 cells stably expressing human GnRHR1; 10 nM GnRH added; FLIPR Calcium Assay Kit; read-out: IC50 (drug concentration at which 50% GnRH-stimulated intracellular calcium flux was inhibited)
T1 construct: expressed in transfected cells
T1 sequence (P30968 1-328): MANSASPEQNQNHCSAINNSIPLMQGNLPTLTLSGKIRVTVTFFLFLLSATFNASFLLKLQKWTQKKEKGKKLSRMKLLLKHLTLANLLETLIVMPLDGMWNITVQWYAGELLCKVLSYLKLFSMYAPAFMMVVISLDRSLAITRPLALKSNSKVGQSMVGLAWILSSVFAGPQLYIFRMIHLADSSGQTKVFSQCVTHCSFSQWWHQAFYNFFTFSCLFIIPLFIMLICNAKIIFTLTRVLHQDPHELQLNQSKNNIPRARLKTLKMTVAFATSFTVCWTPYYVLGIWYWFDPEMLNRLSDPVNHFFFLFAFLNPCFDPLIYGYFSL
Text: 1) Cloning and Construction of the Vector Expressing Human GnRH Receptor1 (GnRHR1)
Using cDNA derived from human pituitary (BECTON DICKINSON) as a template, the DNA fragment coding 45 to 1115 by of human GnRHR1 (Accession No. L03380), which was reported by Kakar et al., was amplified by PCR method and inserted into the multi-cloning site of pcDNA3.1(+) (Invitrogen). The DNA sequence inserted was perfectly matched to the previously reported sequence.
2) Establishment of Cell Line Stably Expressing Human GnRH Receptor1 HEK293 Cells
The expression vector of human GnRHR1 gene, was digested by XhoI into a linear DNA. The linear DNA was transfected into HEK293 cells by means of lipofection (Lipofectamine2000: Invitrogen). Neomycin resistant cell lines were selected by culture in the medium containing G418 (Invitrogen) at 1 mg/mL, and then the change of calcium levels in GnRH-stimulated cells was measured by the method described below.
3) Assay of Inhibitory Effect for the Change of Calcium Levels in GnRH-Stimulated Cells
Antagonizing effect of compounds for human GnRHR1 was evaluated by depression of calcium levels in GnRH-stimulated cells. hGnRHR1#1 cells were seeded into a 96-well culture plate at a density of 1.5×10^5 cells/well and cultured for a day. […] Then, intracellular calcium levels were determined under the following condition by using FLEX STATION (Molecular Devices). […]

[1] = Assay for oral absorbability: plasma drug concentration after oral administration; type: in vivo; conditions: overnight fasted male SD rats, 3 mg/kg
Protocol: Assay for Oral Absorbability
1) Preparation of the Samples for Measurement of the Drug Concentration After Oral Administration
As experimental animal, overnight fasted SD rats (Charles River, male, 7 weeks of age, 170-210 g) were used. Three mg of a test compound was dissolved by adding 0.2 mL of N,N-dimethylacetoamide, 9.794 mL of 0.5% aqueous methylcellulose solution and 0.006 mL of 2N NaOH, and then 0.3 mg/mL solution was prepared. The body weights of rats were measured, and the solution of the test compound was administered orally at the dose of 10 mL/kg (3 mg/kg). The oral administration was performed with gastric tube for rat and 2.5 mL syringe. The sampling times for collection of blood were 15, 30, 60, 120, 240 and 360 minutes after the oral administration. The blood was centrifuged, and the plasma was used as the sample for measurement of the drug concentration in blood.
2) Measurement of the Drug Concentration
To 0.025 mL of the plasma obtained in 1) described above, 0.1 mL of an adequate internal standard material was added according to the usual method, and then deproteinization was performed by adding 0.875 mL of acetonitrile. After centrifugation, 0.005 mL of the supernatant was injected into LC-MS/MS. The drug concentration in plasma was measured by LC-MS/MS method under the conditions as follows. […]

SMILES: COC(=O)N(C)CCOc1ccc(F)c(F)c1COc1ccc(F)c(-n2c(=O)[nH]c3csc(C(=O)O)c3c2=O)c1 [Example 8]
- IC50 (human GnRHR1): 91 nM
- C360 (plasma drug concentration at 360 minutes after administration) ([1]; 360 minutes): 490 ng/mL
- Cmax ([1]; rat, read-out: Cmax (maximum plasma drug concentration)): 2380 ng/mL
